SMILES strings stand for the structures. A value given as a limit tells only on which side of the number the result lay.

In the test the target is T1, Vitronectin receptor αVβ3 (Homo sapiens, UniProt P05106+P06756).
T1 construct: expressed in transfected cells; host or cells: 512P5 cells (plasma membrane preparation)
T1 sequence (P06756 31-889 limits assumed): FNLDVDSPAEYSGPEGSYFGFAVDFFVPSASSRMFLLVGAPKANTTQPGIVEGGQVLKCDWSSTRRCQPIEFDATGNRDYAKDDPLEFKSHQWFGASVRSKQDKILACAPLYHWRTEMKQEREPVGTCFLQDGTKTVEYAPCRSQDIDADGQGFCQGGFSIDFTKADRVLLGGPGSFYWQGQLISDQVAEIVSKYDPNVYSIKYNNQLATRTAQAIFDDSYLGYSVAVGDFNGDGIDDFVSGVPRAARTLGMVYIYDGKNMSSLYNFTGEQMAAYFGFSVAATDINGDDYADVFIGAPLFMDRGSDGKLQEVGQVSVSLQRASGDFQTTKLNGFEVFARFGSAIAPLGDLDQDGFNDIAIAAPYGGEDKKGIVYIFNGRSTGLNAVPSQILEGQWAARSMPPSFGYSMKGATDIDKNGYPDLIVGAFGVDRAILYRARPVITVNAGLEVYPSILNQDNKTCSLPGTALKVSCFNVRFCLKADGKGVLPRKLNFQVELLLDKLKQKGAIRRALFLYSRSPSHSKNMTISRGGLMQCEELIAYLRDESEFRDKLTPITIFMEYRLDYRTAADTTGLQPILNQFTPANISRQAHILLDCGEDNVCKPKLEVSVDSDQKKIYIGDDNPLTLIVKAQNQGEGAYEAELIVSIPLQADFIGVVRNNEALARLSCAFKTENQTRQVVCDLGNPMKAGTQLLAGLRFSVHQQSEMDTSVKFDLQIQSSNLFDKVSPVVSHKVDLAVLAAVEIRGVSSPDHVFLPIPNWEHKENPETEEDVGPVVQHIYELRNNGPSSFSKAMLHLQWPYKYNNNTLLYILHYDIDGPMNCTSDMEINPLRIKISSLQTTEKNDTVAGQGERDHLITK
T1 sequence (P06756 891-1048 partner limits assumed): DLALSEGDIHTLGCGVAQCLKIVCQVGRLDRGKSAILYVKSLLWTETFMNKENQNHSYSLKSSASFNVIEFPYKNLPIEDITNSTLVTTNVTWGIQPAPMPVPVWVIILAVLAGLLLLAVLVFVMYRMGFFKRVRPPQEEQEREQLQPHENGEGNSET
T1 sequence (P05106 27-788): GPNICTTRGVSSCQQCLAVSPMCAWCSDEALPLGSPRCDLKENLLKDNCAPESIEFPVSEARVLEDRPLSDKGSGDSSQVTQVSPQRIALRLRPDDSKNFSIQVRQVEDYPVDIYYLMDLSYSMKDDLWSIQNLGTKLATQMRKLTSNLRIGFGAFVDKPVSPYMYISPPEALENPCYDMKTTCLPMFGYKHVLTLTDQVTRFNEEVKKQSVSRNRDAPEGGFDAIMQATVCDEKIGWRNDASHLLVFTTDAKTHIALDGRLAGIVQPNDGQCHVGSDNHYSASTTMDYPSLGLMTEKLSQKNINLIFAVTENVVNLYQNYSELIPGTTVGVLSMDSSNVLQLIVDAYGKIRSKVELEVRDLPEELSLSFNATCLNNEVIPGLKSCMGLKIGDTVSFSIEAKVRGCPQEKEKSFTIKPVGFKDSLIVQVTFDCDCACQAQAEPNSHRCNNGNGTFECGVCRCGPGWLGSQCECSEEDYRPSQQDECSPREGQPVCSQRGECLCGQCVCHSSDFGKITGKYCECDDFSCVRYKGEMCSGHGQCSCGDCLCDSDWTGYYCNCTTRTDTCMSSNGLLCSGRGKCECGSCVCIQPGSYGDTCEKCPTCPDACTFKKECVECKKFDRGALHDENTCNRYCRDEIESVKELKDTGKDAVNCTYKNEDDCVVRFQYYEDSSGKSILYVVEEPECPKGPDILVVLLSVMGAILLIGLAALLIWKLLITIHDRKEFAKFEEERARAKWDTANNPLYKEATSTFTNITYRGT
The experiment in a line: Vitronectin Receptor αVβ3 Binding Assay. As to conditions: read-out: VnR (IC50μM).
For `CC(C)(C)COC(=O)N[C@@H](CNC(=O)c1ccc(OCCNC2=NCCCN2)cc1O)C(=O)O` [Example 1, (2S)-3-({2-hydroxy-4-[2-(1,4,5,6-tetrahydropyrimidin-2-ylamino)ethoxy]benzoyl}amino)-2-{[(neopentyloxy)carbonyl]amino}propanoic acid], the IC50 worked out at 0.0241 µM. As for `COC(=O)N[C@@H](CNC(=O)c1ccc(OCCNC2=NCCCN2)cc1O)C(=O)O` [Example 2, (2S)-3-({2-hydroxy-4-[2-(1,4,5,6-tetrahydropyrimidin-2-ylamino)ethoxy]benzoyl}-amino)-2-[(methoxycarbonyl)amino]propanoic acid], the IC50 worked out at 0.187 µM.

Consider `CCOC(=O)N[C@@H](CNC(=O)c1ccc(OCCNC2=NCCCN2)cc1O)C(=O)O` [Example 3, (2S)-2-[(ethoxycarbonyl)amino]-3-({2-hydroxy-4-[2-(1,4,5,6-tetrahydropyrimidin-2ylamino)ethoxy]benzoyl}amino)propanoic acid], for which the IC50 is 0.123 µM. As to `CCCOC(=O)N[C@@H](CNC(=O)c1ccc(OCCNC2=NCCCN2)cc1O)C(=O)O` [Example 4, (2S)-3-({2-hydroxy-4-[2-(1,4,5,6-tetrahydropyrimidin-2-ylamino)ethoxy]benzoyl}-amino)-2-[(propoxycarbonyl)amino]propanoic acid], the IC50 is 0.095 µM. `CC(C)OC(=O)N[C@@H](CNC(=O)c1ccc(OCCNC2=NCCCN2)cc1O)C(=O)O` [Example 5, (2S)-3-({2-hydroxy-4-[2-(1,4,5,6-tetrahydropyrimidin-2-ylamino)ethoxy]benzoyl}-amino)-2-[(isopropoxycarbonyl)amino]propanoic acid]: the IC50 came to 0.061 µM. Turning to `C=CCOC(=O)N[C@@H](CNC(=O)c1ccc(OCCNC2=NCCCN2)cc1O)C(=O)O` [Example 6, (2S)-2-{[(allyloxy)carbonyl]amino}-3-({2-hydroxy-4-[2-(1,4,5,6-tetrahydropyrimidin-2-ylamino)ethoxy]benzoyl}amino)propanoic acid], the IC50 was found to be 0.108 µM. For `C=CCCOC(=O)N[C@@H](CNC(=O)c1ccc(OCCNC2=NCCCN2)cc1O)C(=O)O` [Example 7, (2S)-2-{[(but-3-enyloxy)carbonyl]amino}-3-({2-hydroxy-4-[2-(1,4,5,6-tetrahydropyrimidin-2-ylamino)ethoxy]benzoyl}amino)propanoic acid] the value was 0.092 µM.

In the case of `CCCCCCOC(=O)N[C@@H](CNC(=O)c1ccc(OCCNC2=NCCCN2)cc1O)C(=O)O` [Example 8, (2S)-2-{[(hexyloxy)carbonyl]amino}-3-({2-hydroxy-4-[2-(1,4,5,6-tetrahydropyrimidin-2-ylamino)ethoxy]benzoyl}amino)propanoic acid], the IC50 is more than 1 µM.

As for `CCCCCCCCOC(=O)N[C@@H](CNC(=O)c1ccc(OCCNC2=NCCCN2)cc1O)C(=O)O` [Example 9, (2S)-3-({2-hydroxy-4-[2-(1,4,5,6-tetrahydropyrimidin-2-ylamino)ethoxy]benzoyl}-amino)-2-{[(octyloxy)carbonyl]amino}propanoic acid], the IC50 was found to be 0.11 µM.

On to `O=C(N[C@@H](CNC(=O)c1ccc(OCCNC2=NCCCN2)cc1O)C(=O)O)OCC(Cl)(Cl)Cl` [Example 10, (2S)-3-({2-hydroxy-4-[2-(1,4,5,6-tetrahydropyrimidin-2-ylamino)ethoxy]-benzoyl}amino)-2-{[(2,2,2-trichloroethoxy)carbonyl]amino}propanoic acid], for which the IC50 was determined as 0.061 µM.

Regarding `CCCCOC(=O)N[C@@H](CNC(=O)c1ccc(OCCNC2=NCCCN2)cc1O)C(=O)O` [Example 11, (2S)-3-({2-hydroxy-4-[2-(1,4,5,6-tetrahydropyrimidin-2-ylamino)ethoxy]-benzoyl}amino)-2-[(butoxycarbonyl)amino]propanoic acid], the IC50 worked out at 0.0696 µM. Take `CC(C)COC(=O)N[C@@H](CNC(=O)c1ccc(OCCNC2=NCCCN2)cc1O)C(=O)O` [Example 12, (2S)-3-({2-hydroxy-4-[2-(1,4,5,6-tetrahydropyrimidin-2-ylamino)ethoxy]benzoyl}-amino)-2-[(isobutoxycarbonyl)amino]propanoic acid]: the IC50 was determined as 0.0661 µM.

For the origin of these results see patent US20030186967A1, “Acylresorcinol derivatives are selective vitronectin receptor inhibitors” (American Home Products Corporation, priority 1998, published 2003).
